Measured values taken from PMC5394417, “Investigating the molecular mechanism of positive and negative allosteric modulators in the calcium-sensing receptor dimer” (Scientific Reports, 2017).

Legend:
Format in all cases: cell-based
HA-CaSR WT + myc CaSR-WT = molecular target: T1, HA-CaSR WT + myc CaSR-WT (Rattus norvegicus, UniProt P48442); assay: IP-One assay, co-expression 1:1 in HEK293T
T1 construct: mGluR5 signal peptide (N); expressed in transfected cells; host or cells: HEK293T
T1 sequence (P48442 20-1079) 1: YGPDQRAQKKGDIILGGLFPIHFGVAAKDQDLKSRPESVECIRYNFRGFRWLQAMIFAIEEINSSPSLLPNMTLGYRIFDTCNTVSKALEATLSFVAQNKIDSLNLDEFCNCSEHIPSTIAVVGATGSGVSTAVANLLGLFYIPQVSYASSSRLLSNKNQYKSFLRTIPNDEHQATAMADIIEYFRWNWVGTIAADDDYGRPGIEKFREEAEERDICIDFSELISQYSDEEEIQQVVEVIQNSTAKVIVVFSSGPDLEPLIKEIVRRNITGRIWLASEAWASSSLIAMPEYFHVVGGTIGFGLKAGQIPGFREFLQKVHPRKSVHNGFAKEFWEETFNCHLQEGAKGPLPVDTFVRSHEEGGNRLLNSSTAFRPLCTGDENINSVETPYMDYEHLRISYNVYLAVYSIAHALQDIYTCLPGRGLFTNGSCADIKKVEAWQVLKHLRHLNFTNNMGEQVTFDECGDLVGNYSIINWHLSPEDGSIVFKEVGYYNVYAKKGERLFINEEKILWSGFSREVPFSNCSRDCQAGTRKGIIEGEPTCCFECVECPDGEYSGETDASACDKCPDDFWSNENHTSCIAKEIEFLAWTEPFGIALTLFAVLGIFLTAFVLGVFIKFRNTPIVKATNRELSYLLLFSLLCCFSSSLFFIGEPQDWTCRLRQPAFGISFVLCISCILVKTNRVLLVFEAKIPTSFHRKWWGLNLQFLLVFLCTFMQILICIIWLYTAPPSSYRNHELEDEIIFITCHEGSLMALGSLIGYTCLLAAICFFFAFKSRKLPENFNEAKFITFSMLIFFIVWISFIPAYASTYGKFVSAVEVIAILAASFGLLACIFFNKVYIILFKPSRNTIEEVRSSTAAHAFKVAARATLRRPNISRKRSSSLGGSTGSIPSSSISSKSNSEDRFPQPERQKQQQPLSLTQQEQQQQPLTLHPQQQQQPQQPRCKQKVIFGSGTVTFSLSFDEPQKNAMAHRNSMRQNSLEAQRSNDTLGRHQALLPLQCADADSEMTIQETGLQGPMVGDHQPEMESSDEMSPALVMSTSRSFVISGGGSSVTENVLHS
T1 sequence (P48442 20-1079) 2: T1 sequence (P48442 20-1079) 1
Protocol: (§1) Human embryonic kidney (HEK) 293T cells were cultured in DMEM supplemented with 10% dFBS and 1% P/S at 37 °C and 5% CO2. 48 h prior to assay, transient transfection was performed using Lipofectamine 2000 as the transfection reagent. White opaque 96-well culture plates (PerkinElmer, Waltham, MA, USA) were used for the ELISA and the TR-FRET dimerization assay, while clear tissue culture treated 96-well plates (Corning, Corning, NY, USA) were used for the IP-One assay. Both plate types were coated with poly-D-lysine before addition of cells and transfection mix. 0.25 μl/well of Lipofectamine 2000 were diluted in 25 μl/well of Opti-MEM and incubated at room temperature (RT) for 5 min. 0.03 μg/well of DNA was diluted in 25 μl/well of Opti-MEM, and subsequently mixed with the Lipofectamine 2000 dilution and incubated 20 min at RT before addition to the plates. Cell suspensions of 170.000 HEK293T cells/mL were prepared in complete growth medium and 100 μl/well (17.000 cells/well) was added to the plates, which were incubated for 48 h at 37 °C and 5% CO2 before performing assays.
Functional activity was measured using the IP-One assay, which is an IP1 accumulation assay. For agonist testing, ligands were prepared in final concentrations in ligand buffer (HBSS, 20 mM HEPES, pH 7.4 supplemented with 20 mM LiCl). Cells were washed once with 100 μl/well of assay buffer (HBSS, 20 mM HEPES, pH 7.4) and 50 μl/well of agonist solution was added after which plates were incubated at 37 °C for 30 min. Subsequently, ligand solutions were removed and cells were washed with 100 μl/well of assay buffer. Cell lysis was performed by addition of 30 μl/well of IP-One Conjugate & Lysis Buffer (Cisbio Bioassays, Codolet, France) and plates were incubated at RT for 30 min. Afterwards, 30 μl/well of assay buffer was added to dilute the cell lysate. 10 μl/well of cell lysate was transferred from the 96-well plate to a 384-well Optiplate and 10 μl/well of detection solution (Assay buffer + 2.5% of anti-IP1 antibody cryptate Terbium conjugate + 2.5% IP1-d2 conjugate (Cisbio Bioassays, Codolet, France)) was also added. The 384-well plate was incubated for 1 h at RT in dark before being measured on an EnVision plate reader (PerkinElmer, Waltham, MA, USA). Upon excitation at 340 nm, emission at 615 nm and 665 nm was measured, and the FRET ratio (665 nm/615 nm) was converted to IP1 concentrations by interpolating values from an IP1 standard curve generated from a provided IP1 calibrator (Cisbio Bioassays, Codolet, France). When testing allosteric modulators, cells were pre-incubated for 30 min at 37 °C with 50 μl/well of ligand buffer supplemented with allosteric modulator and a final concentration of 1% DMSO. […]

HA-CaSR WT = molecular target: T2, HA-CaSR WT (Rattus norvegicus, UniProt P48442); assay: IP-One assay (IP1 accumulation, Gq signaling), HEK293T transiently transfected
T2 construct: mGluR5 signal peptide (N); expressed in transfected cells; host or cells: HEK293T
T2 sequence (P48442 20-1079): T1 sequence (P48442 20-1079) 1
Protocol: as §1
(§2) Functional activity was measured using the IP-One assay, which is an IP1 accumulation assay. For agonist testing, ligands were prepared in final concentrations in ligand buffer (HBSS, 20 mM HEPES, pH 7.4 supplemented with 20 mM LiCl). Cells were washed once with 100 μl/well of assay buffer (HBSS, 20 mM HEPES, pH 7.4) and 50 μl/well of agonist solution was added after which plates were incubated at 37 °C for 30 min. Subsequently, ligand solutions were removed and cells were washed with 100 μl/well of assay buffer. Cell lysis was performed by addition of 30 μl/well of IP-One Conjugate & Lysis Buffer (Cisbio Bioassays, Codolet, France) and plates were incubated at RT for 30 min. Afterwards, 30 μl/well of assay buffer was added to dilute the cell lysate. 10 μl/well of cell lysate was transferred from the 96-well plate to a 384-well Optiplate and 10 μl/well of detection solution (Assay buffer + 2.5% of anti-IP1 antibody cryptate Terbium conjugate + 2.5% IP1-d2 conjugate (Cisbio Bioassays, Codolet, France)) was also added. The 384-well plate was incubated for 1 h at RT in dark before being measured on an EnVision plate reader (PerkinElmer, Waltham, MA, USA). Upon excitation at 340 nm, emission at 615 nm and 665 nm was measured, and the FRET ratio (665 nm/615 nm) was converted to IP1 concentrations by interpolating values from an IP1 standard curve generated from a provided IP1 calibrator (Cisbio Bioassays, Codolet, France). When testing allosteric modulators, cells were pre-incubated for 30 min at 37 °C with 50 μl/well of ligand buffer supplemented with allosteric modulator and a final concentration of 1% DMSO. Afterwards, the buffer solution was removed and 50 μl/well of agonist solution in ligand buffer supplemented with allosteric modulator and a final concentration of 1% DMSO was added. Plates were incubated for 30 min at 37 °C followed by one wash in 100 μl/well of assay buffer. Cell lysis and detection was performed as described above.

[1] = molecular target: T3, S170A/E837A:F801A heterodimer (Rattus norvegicus, UniProt P48442, E837A/F801A/S170A); assay: IP-One trans-activation assay, co-expression 1:1 in HEK293T
T3 construct: mGluR5 signal peptide (N); expressed in transfected cells; host or cells: HEK293T
T3 sequence (P48442 20-1079 S170A/E837A): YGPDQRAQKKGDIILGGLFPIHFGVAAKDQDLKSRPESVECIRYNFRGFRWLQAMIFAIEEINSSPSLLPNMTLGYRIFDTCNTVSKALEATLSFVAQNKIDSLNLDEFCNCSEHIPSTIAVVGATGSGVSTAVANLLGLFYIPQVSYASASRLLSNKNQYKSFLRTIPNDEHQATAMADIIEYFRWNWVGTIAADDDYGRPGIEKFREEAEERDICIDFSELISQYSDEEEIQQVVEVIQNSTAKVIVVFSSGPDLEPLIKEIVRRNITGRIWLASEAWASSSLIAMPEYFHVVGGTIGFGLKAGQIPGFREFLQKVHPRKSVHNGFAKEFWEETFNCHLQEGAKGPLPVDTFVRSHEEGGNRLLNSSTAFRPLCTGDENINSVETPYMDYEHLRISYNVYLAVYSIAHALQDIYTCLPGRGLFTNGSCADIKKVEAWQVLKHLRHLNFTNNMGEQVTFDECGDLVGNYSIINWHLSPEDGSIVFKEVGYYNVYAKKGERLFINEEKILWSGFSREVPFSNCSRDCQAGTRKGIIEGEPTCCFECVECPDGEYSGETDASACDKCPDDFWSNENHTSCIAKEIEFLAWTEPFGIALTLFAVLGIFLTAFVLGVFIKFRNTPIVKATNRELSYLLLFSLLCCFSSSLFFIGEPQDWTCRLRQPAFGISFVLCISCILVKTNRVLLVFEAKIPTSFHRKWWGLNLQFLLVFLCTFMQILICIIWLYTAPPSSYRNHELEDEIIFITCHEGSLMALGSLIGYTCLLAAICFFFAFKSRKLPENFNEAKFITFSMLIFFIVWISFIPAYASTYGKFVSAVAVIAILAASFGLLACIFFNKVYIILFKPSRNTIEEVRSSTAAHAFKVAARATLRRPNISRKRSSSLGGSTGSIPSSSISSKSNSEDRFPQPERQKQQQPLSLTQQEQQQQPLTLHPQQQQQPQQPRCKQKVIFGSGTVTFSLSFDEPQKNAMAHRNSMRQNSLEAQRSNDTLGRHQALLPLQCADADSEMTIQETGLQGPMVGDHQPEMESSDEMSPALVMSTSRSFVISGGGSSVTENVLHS
T3 sequence (P48442 20-1079 F801A): as the sequence (P48442 20-1079 S170A/E837A) above, with A151S, F782A, A818E counted along it
Protocol: as §1, §2

Row | Structure (SMILES) | EC50 (HA-CaSR WT + myc CaSR-WT; Ca^2+ alone) [mM] | Hill coefficient ± S.E.M. (HA-CaSR WT + myc CaSR-WT; Ca^2+ alone) | pEC50 ± S.E.M. (HA-CaSR WT + myc CaSR-WT; Ca^2+ alone) | Max ± S.E.M. (HA-CaSR WT + myc CaSR-WT; normalized to maximum response of WT CaSR) [%] | EC50 (HA-CaSR WT; Ca^2+ alone, Table 1) [mM] | Hill coefficient ± S.E.M. (HA-CaSR WT; Ca^2+ alone, Table 1) | pEC50 ± S.E.M. (HA-CaSR WT; Ca^2+ alone, Table 1) | EC50 (HA-CaSR WT; Ca^2+ alone, Table 3) [mM] | pEC50 ± S.E.M. (HA-CaSR WT; Ca^2+ alone, Table 3) | Max ± S.E.M. (HA-CaSR WT; Ca^2+ alone, normalized to maximum response of WT CaSR, Table 3) | EC50 (HA-CaSR WT; Ca^2+ with 1 μM NPS R-568) [mM] | pEC50 ± S.E.M. (HA-CaSR WT; Ca^2+ with 1 μM NPS R-568) | Max ± S.E.M. (HA-CaSR WT; Ca^2+ with 1 μM NPS R-568, normalized to maximum response with Ca^2+ alone for the construct) [%] | EC50 (HA-CaSR WT; Ca^2+ with 5 μM NPS 2143) [mM] | pEC50 ± S.E.M. (HA-CaSR WT; Ca^2+ with 5 μM NPS 2143) | Max ± S.E.M. (HA-CaSR WT; Ca^2+ with 5 μM NPS 2143, normalized to maximum response with Ca^2+ alone for the construct) [%] | Max ± S.E.M. (HA-CaSR WT; normalized to maximum response of WT CaSR, Table 1) [%] | potentiation of Ca^2+-mediated response ([1]; S170A/E837A:F801A heterodimer, 0.05, 0.1 and 1 μM NPS R-568) | effect on Ca^2+-mediated response ([1]; S170A/E837A:F801A heterodimer, highest tested concentration of NPS R-568 (1 μM))
1 | [Ca+2] [Ca^2+] | 2.98 | 4.24 ± 0.19 | 2.53 ± 0.02 | 100 | 3.77 | 3.62 ± 0.48 | 2.42 ± 0.01 | 3.21 | 2.49 ± 0.01 | ≈100% | 1.28 | 2.89 ± 0.01 | 110 ± 11 | 8.4 | 2.08 ± 0.01 | 72 ± 5.6 | 100 |  | 
2 | COc1cccc([C@@H](C)NCCCc2ccccc2Cl)c1.Cl [NPS R-568, NPS R-568 hydrochloride] |  |  |  |  |  |  |  |  |  |  |  |  |  |  |  |  |  | no potentiation was observed | inhibited
